Assay results: patent US8148424B2, “Tocopherols, tocotrienols, other chroman and side chain derivatives and uses thereof” (Research Development Foundation, priority 1998, dated 2012)
≈ marks a conversion by molar mass, not a printed value. Like-named read-outs stand apart in the source and are kept apart here.

How the values were obtained:
[1] = test system: human cancer cells from a wide variety of cell lineages; assay: Apoptosis induction in a battery of tumor cells; type: cell-based; settings: breast, prostate, leukemia/lymphoid, cervical, ovarian, endometrial, colon, lung cell lines
Procedure: (§1) Cells were cultured at 1.5×10^5 cells/well in 12 well plates. Cells were allowed to adhere overnight, then incubated with novel test compounds at 0.01, 0.1, 1, 5, 10 & 20 μg/mL for 1, 2 and 3 days. After treatment, cells (floating+trypsin released adherent cells) were pelleted, washed and stained with 2 μg/ml DAPI (4′,6-diamidine-2′-phenylindole dihydrochloride) in 100% methanol for 15 minutes at 37° C. and/or 3′-OH ends resulting from DNA fragmentation were detected with the TUNEL (terminal deoxynucleotidyl transferase-mediated dUTP-X 3′ nick end-labeling) technique, and then viewed using a Zeiss ICM 405 microscope. Cells whose nucleus contained clearly condensed or fragmented chromatin or stained for fragmented DNA in the TUNEL assay were scored as apoptotic. Data are presented as percent cells undergoing apoptosis.

RL-95-2 = assay: Bioassay for apoptosis (apoptotic EC50); type: cell-based, human; settings: Homo sapiens, RL95-2, RL-95-2; unit inferred
Procedure: as §1

MDA-MB-435 = assay: Bioassay for apoptosis (apoptotic EC50); type: cell-based, human
Procedure: as §1

DLD-1 = assay: Bioassay for apoptosis (apoptotic EC50); type: cell-based, human; settings: Homo sapiens, unit inferred
Procedure: as §1

HT-29 = assay: Bioassay for apoptosis (apoptotic EC50); type: cell-based, human; settings: Homo sapiens, unit inferred
Procedure: as §1

PC-3 = assay: Bioassay for apoptosis (apoptotic EC50); type: cell-based, human; settings: Homo sapiens, PC-3, PC-3; unit inferred
Procedure: as §1

DU-145 = assay: Bioassay for apoptosis (apoptotic EC50); type: cell-based, human; settings: Homo sapiens, unit inferred
Procedure: as §1

MCF-7 = assay: Bioassay for apoptosis (apoptotic EC50); type: cell-based, human; settings: Homo sapiens, MCF7, MCF-7; unit inferred
Procedure: as §1

LnCaP = assay: Bioassay for apoptosis (apoptotic EC50); type: cell-based, human; settings: Homo sapiens, unit inferred
Procedure: as §1

A-549 = assay: Bioassay for apoptosis (apoptotic EC50); type: cell-based, human; settings: Homo sapiens, A549, unit inferred
Procedure: as §1

C-170 = assay: Bioassay for apoptosis (apoptotic EC50); type: cell-based, human; settings: Homo sapiens, C170, C-170; unit inferred
Procedure: as §1

HL-60 = assay: Bioassay for apoptosis (apoptotic EC50); type: cell-based, human; settings: Homo sapiens, HL-60, HL-60; unit inferred
Procedure: as §1

Jurkat = assay: Bioassay for apoptosis (apoptotic EC50); type: cell-based, human; settings: Homo sapiens, unit inferred
Procedure: as §1

MCF-10A = assay: Bioassay for apoptosis (apoptotic EC50); type: cell-based; settings: Homo sapiens, unit inferred
Procedure: as §1

T47D = assay: Bioassay for apoptosis (apoptotic EC50); type: cell-based; settings: Homo sapiens, unit inferred
Procedure: as §1

ME-180 = assay: Bioassay for apoptosis (apoptotic EC50); type: cell-based, human; settings: Homo sapiens, ME-180, ME-180; unit inferred
Procedure: as §1

MDA-MB-231 = assay: Bioassay for apoptosis (apoptotic EC50); type: cell-based, human; settings: Homo sapiens, MDA-MB-231, MDA-MB-231; unit inferred
Procedure: as §1

HMEC = assay: Bioassay for apoptosis (apoptotic EC50); type: cell-based; settings: Homo sapiens, unit inferred
Procedure: as §1

[2] = test system: breast tumor cell line MDA-MB-435; assay: Bioassay for DNA synthesis arrest, naturally occurring vitamin E compounds; type: cell-based, human; settings: Table 1
Procedure: Table 1 provides tumor growth inhibitory properties of naturally occurring vitamin E compounds against the breast tumor cell line MDA-MB-435.
To assay DNA synthesis, all cells were used at 2.5×10^5/ml. Cells were treated with each of the compounds at concentrations of 0.01, 0.1, 1, 5, 10 and 20 μg/mL and 200 μl of each treatment group were plated in quadruplicate in a 96 well culture plate (Corning, Corning N.Y.). Experiments were done in duplicate, one plate used for viability testing and the other plate for examination of ^3H-TdR uptake to monitor DNA synthesis. Plates were cultured for 48 hours at 37° C., 5% CO2. Eight hours prior to the end of incubation, ^3H-TdR was added to one of the duplicate plates and incubation continued for 8 hours.
The cells were then harvested (trypsinization was required to harvest adherent cells), and isotope uptake was determined as counts per minute (cpm). For viability studies, at the end of the incubation, the cells were removed from the wells and viability checked by the Trypan Blue Exclusion method. Percent viability and percent DNA synthesis in comparison to untreated or vehicle treated cells of each treatment group were calculated.

[3] = Homo sapiens, MDA-MB-435, MDA-MB-435, unit inferred, read-out: apoptotic EC50
[4] = MDA-MB-435, Table 1, read-out: EC50 for Apoptosis

Row | EC50 (RL-95-2) | EC50 (MDA-MB-435; [3]) | EC50 (DLD-1) | EC50 (HT-29) | EC50 (PC-3) | EC50 (DU-145) | EC50 (MCF-7) | EC50 (LnCaP) | EC50 (A-549) | EC50 (C-170) | EC50 (HL-60) | EC50 (Jurkat) | EC50 (T47D) | EC50 (ME-180) | EC50 (MDA-MB-231) | EC50 (HMEC) | EC50 [2] | EC50 (MDA-MB-435; [4]) | Compound | growth inhibitory (apoptotic inducing) properties specific for human cancer cells [1] | EC50 (MCF-10A)
1 | 20 to 30 µg/mL (≈ 48.5 to 72.7 µM) | 20 to 40 µg/mL | 20 to 40 µg/mL (≈ 48.5 to 97 µM) | > 20 µg/mL | > 20 µg/mL | > 20 µg/mL | > 20 µg/mL | 10 to 20 µg/mL (≈ 24.2 to 48.5 µM) | > 20 µg/mL | 20 to 30 µg/mL (≈ 48.5 to 72.7 µM) | > 20 µg/mL | 20 to 30 µg/mL (≈ 48.5 to 72.7 µM) | > 20 µg/mL |  |  |  |  |  | CC(C)=CCC/C(C)=C\C=C/[C@]1(C)CCc2c(C)c(OCC(=O)O)c(C)c(C)c2O1 [Compound 26] | effective | > 20 µg/mL
2 | > 20 µg/mL | > 20 µg/mL | > 20 µg/mL | > 20 µg/mL | 20 to 30 µg/mL (≈ 39.8 to 59.7 µM) | 20 to 30 µg/mL (≈ 39.8 to 59.7 µM) | > 20 µg/mL | > 20 µg/mL |  | > 20 µg/mL |  |  |  | > 20 µg/mL |  |  |  |  | CCCCCCCCCCCCCCCCC[C@]1(C)CCc2c(C)c(OCC(=O)O)c(C)c(C)c2O1 [Compound 25, 2,5,7,8-tetramethyl-(2R-(heptadecyl)chroman-6-yloxy)acetic acid] | effective | > 20 µg/mL
3 | 5 to 10 µg/mL (≈ 8.28 to 16.6 µM) | 5 to 10 µg/mL |  |  | 10 to 20 µg/mL (≈ 16.6 to 33.1 µM) |  | 5 to 10 µg/mL (≈ 8.28 to 16.6 µM) | 20 to 30 µg/mL (≈ 33.1 to 49.7 µM) |  | 10 to 20 µg/mL (≈ 16.6 to 33.1 µM) | 20 to 30 µg/mL (≈ 33.1 to 49.7 µM) |  |  | 5 to 10 µg/mL (≈ 8.28 to 16.6 µM) | 5 to 10 µg/mL (≈ 8.28 to 16.6 µM) | > 20 µg/mL |  |  | Cc1c(C)c2c(c(C)c1OCC(=O)N(CC(=O)O)CC(=O)O)CC[C@@](C)(CCC[C@H](C)CCC[C@H](C)CCCC(C)C)O2 [Compound 12] | effective | > 20 µg/mL
4 |  |  |  |  |  |  |  |  |  |  |  |  |  |  |  |  | 150 µM | 100 µM | Cc1cc(O)cc2c1O[C@](C)(CCC[C@H](C)CCC[C@H](C)CCCC(C)C)CC2 [δ-tocopherol, reference compound] |  | 
5 |  | > 20 µg/mL | > 20 µg/mL |  | > 20 µg/mL | > 20 µg/mL | > 20 µg/mL | > 20 µg/mL |  |  |  |  |  |  |  |  |  |  | CCCCCCCCCCCCC[C@]1(C)CCc2c(C)c(OCC(=O)O)c(C)c(C)c2O1 [Compound 24, 2,5,7,8-tetramethyl-(2R-(tridecyl)chroman-6-yloxy)acetic acid] |  | 
6 | 1 to 5 µg/mL (≈ 2.11 to 10.5 µM) | 5 to 10 µg/mL |  |  | 5 to 10 µg/mL (≈ 10.5 to 21.1 µM) |  | 10 to 20 µg/mL (≈ 21.1 to 42.1 µM) | 5 to 10 µg/mL (≈ 10.5 to 21.1 µM) |  | 10 to 20 µg/mL (≈ 21.1 to 42.1 µM) | 10 to 20 µg/mL (≈ 21.1 to 42.1 µM) |  |  | 5 to 10 µg/mL (≈ 10.5 to 21.1 µM) | 5 to 10 µg/mL (≈ 10.5 to 21.1 µM) | > 20 µg/mL |  |  | Cc1c(OCC(=O)O)cc2c(c1C)O[C@](C)(CCC[C@H](C)CCC[C@H](C)CCCC(C)C)CC2 [Compound 8, 2,7,8-trimethyl-(2R-(4R,8R,12-trimethyltridecyl)chroman-6-yloxy)acetic acid] | effective | > 20 µg/mL
7 | 5 to 10 µg/mL (≈ 10.5 to 21.1 µM) | 5 to 10 µg/mL |  |  | 5 to 10 µg/mL (≈ 10.5 to 21.1 µM) |  | 10 to 20 µg/mL (≈ 21.1 to 42.1 µM) | 2.5 to 5 µg/mL (≈ 5.27 to 10.5 µM) |  | 10 to 20 µg/mL (≈ 21.1 to 42.1 µM) | 5 to 10 µg/mL (≈ 10.5 to 21.1 µM) |  | > 20 µg/mL | 5 to 10 µg/mL (≈ 10.5 to 21.1 µM) | 5 to 10 µg/mL (≈ 10.5 to 21.1 µM) | > 20 µg/mL |  |  | Cc1cc(OCC(=O)O)c(C)c2c1O[C@](C)(CCC[C@H](C)CCC[C@H](C)CCCC(C)C)CC2 [Compound 7, 2,5,8-trimethyl-(2R-(4R,8R,12-trimethyltridecyl)chroman-6-yloxy) acetic acid] | effective | > 20 µg/mL
8 |  |  |  |  |  |  |  |  |  |  |  |  |  |  |  |  | > 400 µM | 300 µM | Cc1c(O)cc2c(c1C)O[C@](C)(CCC[C@H](C)CCC[C@H](C)CCCC(C)C)CC2 [γ-tocopherol, reference compound] |  | 

Row | Compound | EC50 (RL-95-2) | EC50 (MDA-MB-435; [3]) | EC50 (DLD-1) | EC50 (HT-29) | EC50 (PC-3) | EC50 (DU-145) | EC50 (MCF-7) | EC50 (LnCaP) | EC50 (A-549) | EC50 (C-170) | EC50 (HL-60) | EC50 (Jurkat) | EC50 (T47D) | EC50 (ME-180) | EC50 (MDA-MB-231) | EC50 (HMEC) | EC50 [2] | EC50 (MDA-MB-435; [4]) | growth inhibitory (apoptotic inducing) properties specific for human cancer cells [1] | EC50 (MCF-10A)
9 | CC(C)=CCC/C(C)=C/CC/C(C)=C/CC[C@]1(C)CCc2cc(O)c(C)c(C)c2O1 [γ-tocotrienol, reference compound] |  |  |  |  |  |  |  |  |  |  |  |  |  |  |  |  | 10 µM | 10 µM |  | 
